Holding throughout (assay type): in vivo
For test [1], the system named is Adult male C57BL/6 mice. Briefly: Refractory SE model in mice, drugs given 60 min post-KA, EEG during the next hour. On the procedure: (§1) Adult male C57BL/6 mice (20-25 g) were obtained from Harlan UK (Blackthorn, UK). Mice were first anesthetized using isoflurane (3-5%) and maintained normothermic by means of a feedback-controlled heat blanket (Harvard Apparatus Ltd, Kent, UK). Mice were next placed in a stereotaxic frame and three partial craniectomies performed to affix cortical skull-mounted EEG electrodes (Bilaney Consultants Ltd, Sevenoaks, UK). EEG was recorded using a Grass Comet XL digital EEG (Medivent Ltd, Lucan, Ireland). A guide cannula was affixed (coordinates from Bregma: AP = 0.94; L = 2.85 mm) and the assembly fixed in place with dental cement. Anesthesia was then discontinued and freely moving mice were placed inside a clear perspex recording chamber. EEG recordings were commenced and after establishing baseline EEG for a few minutes, an injection cannula was lowered through the guide cannula for injection of kainic acid (KA) (Ocean Produce International, Nova Scotia, Canada) into the basolateral amygdala nucleus (0.3 µg in 0.2 µl phosphate-buffered saline). Non-seizure control mice underwent the same surgical procedure but received 0.2 µl intra-amygdala vehicle. Mice were killed at different time-points (1, 4, 8 or 24 h) later and perfused with saline to remove intravascular blood components. Brains were either flash-frozen whole in 2-methylbutane at […] or perfused with 4% PFA for histopathology, or dissected on ice to obtain whole hippocampus or microdissected to obtain the different hippocampal subfields (CA1, DG and CA3).
(§2) Digitized EEG recordings were analyzed off-line using manual assessment and automated software. The occurrence of high amplitude high frequency spiking during seizures is synonymous with injury-causing electrographic seizures during SE (also termed type IV electrographic seizures) (Lowenstein et al., 1991; Henshall et al., 2000). The duration of high-frequency (>5 Hz) high-amplitude (>2× baseline) polyspike discharges of ≥5 s duration (HAHFDs) was counted by a reviewer blind to treatment. Further EEG analysis was performed by uploading EEG into Labchart7 software (ADInstruments) to calculate the power spectral density (total power, a measure of the input signal's power (amplitude) over frequency) EEG spectrogram (spectral power against frequency and time).
(§3) A-438079 (3-[[5-(2,3-Dichlorophenyl)-1H-tetrazol-1-yl]methyl]pyridine hydrochloride) (50 µM) was from Tocris Biosciences (Bristol, U.K.) and the P2X7R specific antibody was from Alomone Labs (APR-008, Alomone Labs, Ltd, Jerusalem, Israel) and injected at 0.7 mg/ml. Lorazepam (Ativan®, Wyeth, Taplow, U.K.) (6 mg/kg) was administered intraperitoneally (i.p.) at 40 or 60 min after KA.
To model refractory SE, seizures were allowed to continue beyond the normal time when lorazepam is given (40 min) and instead the effects of drugs were recorded 60 min post-KA on the EEG during the next hour.

In test [2] the test system is 10 day old Sprague Dawley rat pups. Briefly: Neonatal SE model, intra-amygdala KA in P10 rat pups, EEG. The conditions noted are these: 150 µmol/kg intraperitoneally, 40 min post-KA. The protocol: 10 day old Sprague Dawley rat pups were obtained from Harlan UK Limited (Blackthorn, UK). Rat pups were equipped with skull surface EEG and given intra-amygdala microinjection of kainic acid (2 µg) via an implanted guide cannula. P10 rat pups develop SE shortly after KA injection. Seizures in the model are propagated to the hippocampus and surface EEG recordings have previously shown a transition to low amplitude high frequency EEG, developing into high amplitude high frequency epileptiform EEG seizures. The pups display behaviour including initial masticatory movements and salivation, developing to periods of facial and forelimb myoclonus and progressing to the most commonly observed behaviour of wild running, loss of posture and swimming motions. The high amplitude high frequency spiking is sustained and corresponds to wild running and swimming behaviours during recordings 1-2 h after KA. By 4 hours, continuous seizures have abated but the EEG continues to display intermittent lower-amplitude high frequency spiking and high amplitude low frequency spikes even after 24 h. The pathological consequences of neonatal seizures in the model include hippocampal cell death and the animals later display unilateral hippocampal sclerosis.
as §2, with “time). […]” for “time).”

Test [3] concerns Adult male C57BL/6 mice. Briefly: Intra-amygdala KA-induced SE in mice, EEG, early post-treatment after seizure onset. The conditions noted are these: i.c.v. 15 min after KA. On the procedure: as §1, §2, §3
15 min after the injection of KA. […]

The values below come from patent EP2604265A1, “P2x7 antagonists as frontline or adjunctive treatment against status epilepticus” (Royal College of Surgeons in Ireland (RCSI), priority 2011, dated 2013).

In the case of `Cl.Clc1cccc(-c2nnnn2Cc2cccnc2)c1Cl` [A-438079, 3-[[5-(2,3-Dichlorophenyl)-1H-tetrazol-1-yl]methyl]pyridine hydrochloride], in the test on Adult male C57BL/6 mice [1] (given 60 min after KA, 60 min recording, vs vehicle), the “total seizure time (duration of HAHFDs)” value is listed as “not significantly different”. In addition, the seizure activity result with Adult male C57BL/6 mice [1] (given 60 min after KA, particularly within the first 15-30 min following injection) was “some suppression”. Besides, the “mice continued in SE” value in the test with Adult male C57BL/6 mice [1] (given alone 60 min after KA, number of mice / group) is 3/5. Besides, the seizures result in test [2] (P10 rat pups) was “strongly reduced”. In addition, in test [2] (vs vehicle (PBS)), the amplitude entry is “less amplitude” and the total power result is “less total power”. Moreover, in the test on Adult male C57BL/6 mice [3] (recorded until lorazepam at 40 min post-KA, vs vehicle), the “duration of HAHFDs” value is “significantly reduced”. Also, in the test with Adult male C57BL/6 mice [3] (until 40 min post-KA, vs vehicle), the Total seizure power result is given as “significantly reduced”. Besides, in the test on Adult male C57BL/6 mice [3] (vs vehicle), the “frequency of the EEG” value is listed as “No changes”. Also, the seizure amplitude entry with Adult male C57BL/6 mice [3] (spectral heat map during SE) was “decreased”.
